In general, melting point refers to the temperature of the solid-liquid transition.

This passage reports melting point results from a melting point compilation (Tetko et al.; mined from patent text by program, amines drawn as free bases though some values may be those of a salt).

On to `CC(C)(C=CBr)C(=O)Nc1ccc(Cl)cc1`, for which the melting point fell in the range of 134 to 135 °C. For `Cc1ccc2c(c1)C(C=O)c1ccccc1C2C=O` (centres undefined), the melting point fell in the range of 125 to 126 °C.

Consider `COc1ccc(N2CCOCC2)c2sc(NC(=O)N3CC4CC[C@@](C)(C3)C4(C)C)nc12`, for which the melting point lay within 185 to 189 °C. `CC1CC(=O)NN=C1c1ccc(NC2=NCCN2)c(Br)c1` (centres undefined) had a melting point of 265 to 267 °C.

`C=CCOCc1csc2c(=O)c(C(=O)NCc3ccc(Cl)cc3)cn(C)c12` gave a melting point of 156 to 158 °C.

`Cc1cccc(CNc2ncnc3nc[nH]c23)c1O` came in with a melting point of 276 to 277 °C. In turn, `Cn1c2cc(Cl)ccc2c2c(C(=O)N3CCCC3)nc(-c3ccncc3)nc21` gave a melting point of 256 to 258 °C. On to `COc1cccc(OC)c1-c1cc(C(=O)O)nn1-c1ccc(C(N)=O)cc1C`, for which the melting point lay in the range of 275 to 276 °C. As for `O=c1nc(NCc2ccccc2)sc2c([N+](=O)[O-])cc(C(F)(F)F)cc12`, the figure is 192 to 194 °C; as for `Cc1nc(-c2ccccc2)[nH]c(=O)c1C`, 205 to 207 °C; as for `CCCNC(=O)c1cc2ccc(OC)cc2n1CCNC(C)=O`, 127 to 128 °C. In turn, `CC(=O)Oc1ccc2c(c1)COC(C(Cl)(Cl)Cl)N2` (centres undefined) returned a melting point of 155 to 157 °C. With `OC(COc1ccc2nncn2n1)CN1CCN(C(c2ccccc2)c2ccccc2)CC1` (centres undefined), the melting point is 95 to 97 °C.

Compound `Cc1ccc(S(=O)(=O)OCCN(c2ccc(OC(F)(F)F)cc2)S(=O)(=O)c2ccc(C)cc2)cc1` gave a melting point of 88 °C. Consider `CCCn1nc(C(C)C)c(C(=O)OCOC(=O)C(C)(C)C)c1Cc1ccc(-c2ccccc2-c2nnn(C(c3ccccc3)(c3ccccc3)c3ccccc3)n2)cc1`, for which the melting point fell in the range of 128 to 130 °C. As to `CCc1cc(/C=C/C(N)=O)ccc1Cl`, the melting point was 152 to 153 °C.

`CN1C(=O)N2[C@H](c3cccc(O)c3)c3[nH]c4ccc(Cl)cc4c3C[C@@]2(C)C1=O` (racemic) gave a melting point of 248 to 250 °C.

As for `CC(C)N(CCOc1ccc(CC2SC(=O)NC2=O)cc1)c1nc2ccccc2o1` (centres undefined), the melting point was 66 °C. `CN(C)Cc1cc(CSCCNc2ncc([N+](=O)[O-])c(=O)[nH]2)cs1` gave a melting point of 150 to 153 °C.

Turning to `O=C(O)CCCOc1ccc(C2C3CC4CC(C3)CC2C4)cc1` (centres undefined), the melting point was 163 to 165 °C. The compound `COC(=O)c1nn2c(C)csc2c1SSc1c(C(=O)OC)nn2c(C)csc12` had a melting point of 193 to 194 °C.

Consider `CS(=O)(=O)C(=C1CN(C(c2ccccc2)c2ccccc2)C1)c1cc(F)ccc1F`, for which the melting point was 176 °C. In the case of `O=C1Cc2cccc(Oc3c(Cl)cccc3Cl)c2N1` it was more than 230 °C; in that of `O=C(Oc1ccccc1)c1ccc(NS(=O)(=O)c2ccccc2)cc1Cl`, 130 to 140 °C. As for `N#Cc1cc(-c2ccncc2)c[nH]c1=O`, the figure is more than 300 °C; as for `C[C@]1(CN2CCC(OCc3ccc(C(F)(F)F)cc3)CC2)Cn2cc([N+](=O)[O-])nc2O1`, 91 to 92 °C; as for `CCOC(=O)Cc1ccc(CC(=O)c2c(O)c3cccnc3n(-c3ccccc3)c2=O)cc1`, 156 to 158 °C.

Regarding `O=C(NCc1ccccc1)c1ccnc(NC(=O)c2cccc(C(F)(F)F)c2)c1`, the melting point was 87 to 88 °C. Compound `O=C(Nc1ncco1)C1c2ccccc2Sc2ccccc21` had a melting point of 188 to 191 °C. `Cc1cncn1CC#Cc1cc(CN2CCOCC2)cc2c(=O)c(C(=O)NCc3ccc(Cl)cc3)cn(C)c12`: the melting point was in the range of 149 to 152 °C. Take `Cc1[nH]c2ccccc2c1CCCN1CCC(c2noc3cc(F)ccc23)CC1`: the melting point lay in the range of 208 to 210 °C. In turn, `Nc1ccccc1Sc1ccc2c(c1)OCC(=O)N2` registered a melting point of 70 to 71 °C. The compound `Fc1ccc2onc(CCCN3CCN(c4cc5ccccc5cn4)CC3)c2c1` yielded a melting point of 130 to 133 °C. As to `CNC(=O)c1cccc(NC(=O)CCc2ccc(OC)cc2)c1`, the melting point fell in the range of 151 to 152 °C.
